Laboratory results from paper PMC5266543 (ACS infectious diseases, 2016).
In brackets after ≈: the same amount, converted by molar mass. Entries after “also recorded” stand apart in the source; their conditions may differ. Where two headings read alike, the source gives them in different places. Marks after values point to notes of the source that are not given here.

Legend:
[1] = biological target: Yp Dxr (Yersinia pestis, UniProt Q8ZH62); format: biochemical; details: for IC50: read-out: Yp Dxr IC50
[2] = biological target: T1, Mtb Dxr (Mycobacterium tuberculosis, UniProt P9WNS1); format: biochemical; details: for IC50: read-out: Mtb Dxr IC50
T1 sequence (P9WNS1 1-413): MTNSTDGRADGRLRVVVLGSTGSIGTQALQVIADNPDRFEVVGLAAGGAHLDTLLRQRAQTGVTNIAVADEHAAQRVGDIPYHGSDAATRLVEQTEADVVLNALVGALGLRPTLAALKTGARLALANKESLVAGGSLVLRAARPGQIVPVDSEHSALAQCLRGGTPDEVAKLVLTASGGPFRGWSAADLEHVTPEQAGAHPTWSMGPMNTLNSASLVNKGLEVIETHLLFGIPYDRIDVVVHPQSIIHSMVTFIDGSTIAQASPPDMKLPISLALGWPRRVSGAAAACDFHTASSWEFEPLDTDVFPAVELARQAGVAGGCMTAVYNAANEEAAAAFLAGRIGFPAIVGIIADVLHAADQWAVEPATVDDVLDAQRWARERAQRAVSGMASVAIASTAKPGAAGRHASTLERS

[3] = test system: M. tuberculosis H37Rv; assay: microbe, parasite or virus in culture; format: cell-based, Mycobacterium tuberculosis; details: for MIC: Mycobacterium tuberculosis, H37RV, read-out: M. tuberculosis MIC
[4] = test system: Yp; format: cell-based, Yersinia pestis
[5] = test system: E. coli MG1655; format: cell-based, Escherichia coli
[6] = test system: Dxr; details: cited from earlier work

Chain of Yp Dxr (Q8ZH62 whole entry, looked up): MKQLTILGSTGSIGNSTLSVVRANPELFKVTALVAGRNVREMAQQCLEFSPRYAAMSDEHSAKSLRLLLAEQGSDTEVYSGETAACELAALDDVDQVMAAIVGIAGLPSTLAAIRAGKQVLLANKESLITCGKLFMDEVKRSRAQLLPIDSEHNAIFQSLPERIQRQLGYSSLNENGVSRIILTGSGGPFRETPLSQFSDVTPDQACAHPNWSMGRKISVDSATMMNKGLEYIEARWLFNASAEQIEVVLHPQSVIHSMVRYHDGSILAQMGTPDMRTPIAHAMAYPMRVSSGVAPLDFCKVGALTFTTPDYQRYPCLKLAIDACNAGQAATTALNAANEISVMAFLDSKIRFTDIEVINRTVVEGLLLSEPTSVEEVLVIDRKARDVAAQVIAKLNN

Compound | inhibition of Yp Dxr (in words) [1] | percent remaining enzyme activity at 100 µM (Mtb Dxr) [2] | M. tuberculosis MIC [3] | inhibition of Mtb Dxr (in words) [2] | further results
CC(=O)N(CCCP(=O)([O-])O)OCCc1ccc(O)cc1.[Na+] [Compound 16g, Sodium Hydrogen 3-(N-(4-hydroxyphenethoxy)acetamido)propyl phosphonate] | most active | (59) percent |  |  | percent remaining enzyme activity at 100 µM (Yp Dxr) [1]: (22) percent; selectivity between Dxr homologs (Yp versus Mtb) [1]: same trend
CC(=O)N(CCCP(=O)(OCOC(=O)c1ccccc1)OCOC(=O)c1ccccc1)OCCCCc1ccccc1 [Compound 21, [({[(benzoyl)oxy]methoxy}({3-[N-(4-phenylbutoxy)acetamido]propyl})phosphoryl)oxy]methyl benzoate] |  |  |  |  | MIC [3]: 25 µg/mL (≈ 41.8 µM)
O=C(COc1ccc(Cl)cc1)N(O)CCCP(=O)([O-])O.[Na+] [Compound 8l, Sodium hydrogen-3-(2-(4-chlorophenoxy)-N-hydroxyacetamido)propyl phosphonate] |  |  | >200 (25) µg/mL |  | 
CC(=O)N(O)CCCP(=O)(O)O [Compound 2, FR900098] |  |  | >500 µg/mL |  | growth inhibition activity (in words) [4]: potently inhibits bacterial propagation in a dose-dependent manner; growth inhibition activity (in words) [5]: potently inhibits bacterial propagation in a dose-dependent manner; IC50 [1]: 0.23 µM; IC50 [2]: 2.91 µM; mechanism of inhibition [6]: competitive inhibitors with respect to DXP and uncompetitive relative to NADPH
O=CN(O)CCCP(=O)(O)O [Compound 1, fosmidomycin, reference compound] |  |  |  |  | MIC [3]: > 500 µg/mL; mechanism of inhibition [6]: competitive inhibitors with respect to DXP and uncompetitive relative to NADPH
O=C(N(O)CCCP(=O)([O-])O)N(c1ccccc1)c1ccccc1.[Na+] [Compound 8n, Sodium hydrogen-3-(1-hydroxy-3,3-diphenylureido)propyl phosphonate] | ineffective |  |  | ineffective | 
CC(=O)N(CCCP(=O)([O-])O)OCc1ccc(-c2ccc(C(C)C)cc2)cc1.[Na+] [Compound 16p, Sodium Hydrogen 3-(N-((4'-isopropyl-[1,1'-biphenyl]-4-yl)methoxy)acetamido)propyl phosphonate] |  |  | 100 (6.25–12.5) µg/mL |  | 
CC(=O)N(CCCP(=O)(OCOC(=O)C(C)(C)C)OCOC(=O)C(C)(C)C)OCc1ccc2ccccc2c1 [Compound 20, [({[(2,2-dimethylpropanoyl)oxy]methoxy}({3-[N-(naphthalen-2-ylmethoxy)acetamido]propyl})phosphoryl)oxy]methyl 2,2-dimethylpropanoate] |  |  | 18.75 (4.7) µg/mL |  | 
Cc1ccc(C(=O)N(O)CCCP(=O)([O-])O)cc1.[Na+] [Compound 8f, Sodium hydrogen-3-(N-hydroxy-4-methylbenzamido)propyl phosphonate] | most active | (74) percent |  |  | selectivity between Dxr homologs (Yp versus Mtb) [1]: significantly more potent against Yp Dxr; IC50 [1]: 16 µM
CC(=O)N(CCCP(=O)([O-])O)OCc1ccc2ccccc2c1.[Na+] [Compound 16j, Sodium Hydrogen 3-(N-(naphthalen-2-ylmethoxy)acetamido)propyl phosphonate] | potent inhibitors; also recorded: most active |  | ≥200 µg/mL | potent inhibitors; also recorded: greatest inhibition | IC50 [1]: 0.33 µM; inhibitor modality (Lineweaver-Burk) [2]: competitive with both NADPH and DXP; Ki ([2]; read-out: Ki relative to NADPH): 17.8 µM; Ki ([2]; read-out: Ki with respect to DXP): 1 µM; IC50 [2]: 1.45 µM
NNC(=O)c1ccncc1 [INH, reference compound] |  |  | 0.01 µg/mL |  | 
O=C(CCCc1ccccc1)N(O)CCCP(=O)([O-])O.[Na+] [Compound 8h, Sodium hydrogen-3-(N-hydroxy-4-phenylbutanamido)propyl phosphonate] | most active |  | >200 µg/mL | greatest inhibition | percent remaining enzyme activity at 100 µM (Yp Dxr) [1]: (34) percent; IC50 [2]: 17.8 µM; binding modality [6]: competitively with DXP but noncompetitively with NADPH
CC(=O)N(CCCP(=O)([O-])O)OCc1ccc(-c2ccc(C(F)(F)F)cc2)cc1.[Na+] [Compound 16r, Sodium Hydrogen 3-(N-((4'-(trifluoromethyl)-[1,1'-biphenyl]-4-yl)methoxy)acetamido)propyl phosphonate] | most active | (70) percent |  |  | percent remaining enzyme activity at 100 µM (Yp Dxr) [1]: (19) percent
CC(=O)N(CCCP(=O)(OCOC(=O)C(C)(C)C)OCOC(=O)C(C)(C)C)OCc1ccc(C(C)C)cc1 [Compound 17, [({[(2,2-dimethylpropanoyl)oxy]methoxy}[3-(N-{[4-(propan-2-yl)phenyl]methoxy}acetamido)propyl]phosphoryl)oxy]methyl 2,2-dimethyl propanoate] |  |  | 12.5 (6.25–12.5) µg/mL |  | 
CC(=O)N(CCCP(=O)([O-])O)OCc1ccc(-c2ccccc2)cc1.[Na+] [Compound 16k, Sodium Hydrogen 3-(N-([1,1'-biphenyl]-4-ylmethoxy)acetamido)propyl phosphonate] | potent inhibitors; also recorded: most active | (36.8) percent | 25 to 50 µg/mL | potent inhibitors; also recorded: greatest inhibition | selectivity between Dxr homologs (Yp versus Mtb) [1]: more potent against Yp Dxr; IC50 [1]: 8.4 µM
CCCCC(=O)N(O)CCCP(=O)([O-])O.[Na+] [Compound 8a, Sodium hydrogen-3-(N-hydroxypentanamido)propyl phosphonate] |  |  |  | greatest inhibition | 
CC(=O)N(CCCP(=O)([O-])O)OCc1cccc2ccccc12.[Na+] [Compound 16i, Sodium Hydrogen 3-(N-(naphthalen-1-ylmethoxy)acetamido)propyl phosphonate] | most active | (29) percent |  | greatest inhibition | selectivity between Dxr homologs (Yp versus Mtb) [1]: more potent against Yp Dxr; IC50 [1]: 22.4 µM
CC(=O)N(CCCP(=O)(OCOC(=O)C(C)(C)C)OCOC(=O)C(C)(C)C)OCCCCc1ccccc1 [Compound 18, [({[(2,2-dimethylpropanoyl)oxy]methoxy}({3-[N-(4-phenylbutoxy)acetamido]propyl})phosphoryl)oxy]methyl 2,2-dimethylpropanoate] |  |  |  |  | MIC [3]: 12.5 µg/mL (≈ 22.4 µM)
CCCCCCC(=O)N(O)CCCP(=O)([O-])O.[Na+] [Compound 8b, Sodium hydrogen-3-(N-hydroxyheptanamido)propyl phosphonate] | inhibited; also recorded: most active | (43) ^* percent |  | inhibited; also recorded: greatest inhibition | percent remaining enzyme activity at 100 µM (Yp Dxr) [1]: (27) percent
CC(=O)N(CCCP(=O)([O-])O)OCc1ccc(C(C)C)cc1.[Na+] [Compound 16d, Sodium Hydrogen 3-(N-((4-isopropylbenzyl)oxy)acetamido)propyl phosphonate] | potent inhibitors; also recorded: most active |  | 200 (25) µg/mL | potent inhibitors; also recorded: greatest inhibition | selectivity between Dxr homologs (Yp versus Mtb) [1]: more potent against Yp Dxr; IC50 [1]: 1.19 µM; IC50 [2]: 48.4 µM
O=C(CCC1CCCCC1)N(O)CCCP(=O)([O-])O.[Na+] [Compound 8d, Sodium hydrogen-3-(3-cyclohexyl-N-hydroxypropanamido)propyl phosphonate] |  |  | >200 (25) µg/mL |  | 
O=C(c1ccccc1)N(O)CCCP(=O)([O-])O.[Na+] [Compound 8e, Sodium hydrogen-3-(N-hydroxybenzamido)propyl phosphonate] | most active | (70) percent | ≥200 µg/mL |  | inhibitor modality (Lineweaver-Burk) [1]: competitive with both NADPH and DXP; selectivity between Dxr homologs (Yp versus Mtb) [1]: significantly more potent against Yp Dxr; Ki ([1]; read-out: Ki relative to DXP): 7.9 µM; Ki ([1]; read-out: Ki with respect to NADPH): 1.8 µM; IC50 [1]: 4.45 µM
CC(=O)N(CCCP(=O)([O-])O)OC(C)c1ccccc1.[Na+] (stereo not shown) [Compound 16e, Sodium Hydrogen 3-(N-(1-phenylethoxy)acetamido)propyl phosphonate] | most active | (38.1) percent |  | greatest inhibition | percent remaining enzyme activity at 100 µM (Yp Dxr) [1]: (19) percent
CC(=O)N(CCCP(=O)([O-])O)OCCCCc1ccccc1.[Na+] [Compound 16h, Sodium Hydrogen 3-(N-(4-phenylbutoxy)acetamido)propyl phosphonate] |  |  | ≥200 µg/mL |  | 
CC(=O)N(CCCP(=O)(OCOC(=O)C(C)(C)C)OCOC(=O)C(C)(C)C)OCc1ccc(-c2ccccc2)cc1 [Compound 19, [({[(2,2-dimethylpropanoyl)oxy]methoxy}(3-{N-[(4-phenylphenyl)methoxy]acetamido}propyl)phosphoryl)oxy]methyl 2,2-dimethyl propanoate] |  |  | 12.5 (3.13–6.25) µg/mL |  | 
